Test results: US20120270237A9, “METHODS FOR THE IDENTIFICATION OF KINASE INTERACTING MOLECULES AND FOR THE PURIFICATION OF KINASE PROTEINS” (Cellzone AG, priority 2009, published 2012)

Tests used:
Test in all cases: Kinobeads competition binding, HeLa Placenta lysate mix
Set-up in all cases: endogenous in cells
Details in all cases: 10 μM free compound
[1] = molecular target: IRE1 (Homo sapiens, UniProt O75460)
Method in brief: (§1)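 Competition pulldown: free compound at 10 μM competes with an immobilized-compound affinity matrix for lysate proteins. Captured proteins undergo SDS-PAGE and in-gel tryptic digestion, then iTRAQ-labeled LC-MS/MS quantification relative to a DMSO-treated aliquot.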

[2] = molecular target: LYN (Homo sapiens, UniProt P07948)
Method in brief: as §1

[3] = molecular target: JAK1 (Homo sapiens, UniProt P23458)
Method in brief: as §1

[4] = molecular target: TYK2 (Homo sapiens, UniProt P29597)
Method in brief: as §1

[5] = molecular target: T1, IKKe (Homo sapiens, UniProt Q14164)
T1 sequence (Q14164 1-716): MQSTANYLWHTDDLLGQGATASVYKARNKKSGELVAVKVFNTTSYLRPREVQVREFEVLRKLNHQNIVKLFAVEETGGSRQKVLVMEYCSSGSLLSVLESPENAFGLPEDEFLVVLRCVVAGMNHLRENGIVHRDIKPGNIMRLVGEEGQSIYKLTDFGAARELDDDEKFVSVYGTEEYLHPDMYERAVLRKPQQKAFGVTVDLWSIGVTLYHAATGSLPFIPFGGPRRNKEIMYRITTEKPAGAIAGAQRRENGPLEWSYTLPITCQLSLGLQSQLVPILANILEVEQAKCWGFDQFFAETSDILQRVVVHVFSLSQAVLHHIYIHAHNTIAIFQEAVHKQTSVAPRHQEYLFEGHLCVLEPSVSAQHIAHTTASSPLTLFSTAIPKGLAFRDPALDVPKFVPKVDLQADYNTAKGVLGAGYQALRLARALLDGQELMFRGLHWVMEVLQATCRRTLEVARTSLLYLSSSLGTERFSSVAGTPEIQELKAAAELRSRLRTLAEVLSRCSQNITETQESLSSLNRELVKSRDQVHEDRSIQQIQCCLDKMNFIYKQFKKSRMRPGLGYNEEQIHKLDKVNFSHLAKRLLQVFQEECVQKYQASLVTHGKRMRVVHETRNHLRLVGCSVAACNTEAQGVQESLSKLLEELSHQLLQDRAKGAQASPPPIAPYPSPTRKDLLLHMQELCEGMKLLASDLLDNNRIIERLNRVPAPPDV
Method in brief: as §1

[6] = molecular target: Erk1 (Homo sapiens, UniProt P27361)
Method in brief: as §1

[7] = molecular target: CDC2 (Homo sapiens, UniProt P06493)
Method in brief: as §1

[8] = molecular target: CDK5 (Homo sapiens, UniProt Q00535)
Method in brief: as §1

[9] = molecular target: JNK2 (Homo sapiens, UniProt P45984)
Method in brief: as §1

[10] = molecular target: T2, PIP5K2C (Homo sapiens, UniProt Q8TBX8)
T2 sequence (Q8TBX8 1-421): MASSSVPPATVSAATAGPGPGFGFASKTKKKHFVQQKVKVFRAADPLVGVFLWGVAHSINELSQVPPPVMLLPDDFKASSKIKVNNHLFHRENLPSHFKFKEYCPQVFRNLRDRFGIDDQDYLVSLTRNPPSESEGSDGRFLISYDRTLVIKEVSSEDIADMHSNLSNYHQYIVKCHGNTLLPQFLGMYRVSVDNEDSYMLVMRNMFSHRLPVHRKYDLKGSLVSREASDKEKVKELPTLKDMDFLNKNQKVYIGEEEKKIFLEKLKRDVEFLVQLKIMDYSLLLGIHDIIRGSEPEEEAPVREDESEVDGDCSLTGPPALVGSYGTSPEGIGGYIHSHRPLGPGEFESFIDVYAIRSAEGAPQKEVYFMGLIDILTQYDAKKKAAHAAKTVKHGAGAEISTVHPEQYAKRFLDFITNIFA
Method in brief: as §1

[11] = molecular target: RSK3 (Homo sapiens, UniProt Q15349)
Method in brief: as §1

[12] = molecular target: T3, TBK1 (Homo sapiens, UniProt Q9UHD2)
T3 sequence (Q9UHD2 1-729): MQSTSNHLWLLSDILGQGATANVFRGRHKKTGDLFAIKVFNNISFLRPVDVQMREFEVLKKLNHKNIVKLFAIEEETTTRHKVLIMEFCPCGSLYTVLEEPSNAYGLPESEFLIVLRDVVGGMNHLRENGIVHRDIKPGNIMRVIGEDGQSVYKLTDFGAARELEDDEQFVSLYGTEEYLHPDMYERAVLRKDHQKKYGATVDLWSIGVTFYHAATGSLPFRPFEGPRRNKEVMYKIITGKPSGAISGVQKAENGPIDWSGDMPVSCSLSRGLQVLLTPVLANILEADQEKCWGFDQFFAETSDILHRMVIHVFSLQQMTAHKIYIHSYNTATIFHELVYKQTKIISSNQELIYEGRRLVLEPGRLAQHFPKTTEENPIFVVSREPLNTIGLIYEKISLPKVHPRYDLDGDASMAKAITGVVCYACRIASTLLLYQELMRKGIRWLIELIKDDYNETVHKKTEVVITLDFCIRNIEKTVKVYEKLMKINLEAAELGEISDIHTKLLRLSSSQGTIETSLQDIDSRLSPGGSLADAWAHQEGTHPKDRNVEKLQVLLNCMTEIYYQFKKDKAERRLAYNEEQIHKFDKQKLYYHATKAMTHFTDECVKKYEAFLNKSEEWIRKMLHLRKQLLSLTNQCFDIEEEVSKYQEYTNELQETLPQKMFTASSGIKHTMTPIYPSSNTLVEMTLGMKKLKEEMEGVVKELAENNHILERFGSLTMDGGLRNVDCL
Method in brief: as §1

Chain of JAK1 (P23458 whole entry): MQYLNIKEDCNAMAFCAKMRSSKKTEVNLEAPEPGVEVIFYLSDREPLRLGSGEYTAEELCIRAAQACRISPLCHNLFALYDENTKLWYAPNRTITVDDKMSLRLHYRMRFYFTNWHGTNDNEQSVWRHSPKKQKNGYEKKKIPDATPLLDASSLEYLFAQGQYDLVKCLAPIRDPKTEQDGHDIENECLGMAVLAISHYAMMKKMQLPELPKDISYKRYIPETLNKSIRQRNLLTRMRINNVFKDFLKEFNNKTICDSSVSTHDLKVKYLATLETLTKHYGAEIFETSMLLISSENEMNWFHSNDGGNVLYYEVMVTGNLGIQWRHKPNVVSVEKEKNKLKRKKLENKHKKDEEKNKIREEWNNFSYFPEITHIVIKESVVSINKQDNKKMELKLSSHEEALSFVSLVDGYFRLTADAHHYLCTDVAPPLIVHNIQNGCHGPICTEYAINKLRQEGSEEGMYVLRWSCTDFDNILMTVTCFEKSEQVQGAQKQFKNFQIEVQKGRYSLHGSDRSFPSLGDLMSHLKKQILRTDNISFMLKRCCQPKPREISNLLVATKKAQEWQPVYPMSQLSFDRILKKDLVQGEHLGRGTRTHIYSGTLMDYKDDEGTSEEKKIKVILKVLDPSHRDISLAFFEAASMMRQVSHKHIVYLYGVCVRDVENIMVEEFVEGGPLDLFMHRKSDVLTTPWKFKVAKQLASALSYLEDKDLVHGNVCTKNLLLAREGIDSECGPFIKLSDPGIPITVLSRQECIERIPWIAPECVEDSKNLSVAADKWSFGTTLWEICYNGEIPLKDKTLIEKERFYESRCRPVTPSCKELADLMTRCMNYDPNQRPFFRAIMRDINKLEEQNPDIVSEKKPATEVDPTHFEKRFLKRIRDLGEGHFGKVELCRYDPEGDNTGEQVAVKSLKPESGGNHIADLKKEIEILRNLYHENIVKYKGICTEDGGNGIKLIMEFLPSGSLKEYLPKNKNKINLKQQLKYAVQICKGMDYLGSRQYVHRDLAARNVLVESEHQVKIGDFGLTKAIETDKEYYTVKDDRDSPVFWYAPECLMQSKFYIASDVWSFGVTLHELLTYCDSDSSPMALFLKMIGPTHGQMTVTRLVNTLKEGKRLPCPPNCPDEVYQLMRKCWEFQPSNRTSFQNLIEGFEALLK
Chain of TYK2 (P29597 whole entry): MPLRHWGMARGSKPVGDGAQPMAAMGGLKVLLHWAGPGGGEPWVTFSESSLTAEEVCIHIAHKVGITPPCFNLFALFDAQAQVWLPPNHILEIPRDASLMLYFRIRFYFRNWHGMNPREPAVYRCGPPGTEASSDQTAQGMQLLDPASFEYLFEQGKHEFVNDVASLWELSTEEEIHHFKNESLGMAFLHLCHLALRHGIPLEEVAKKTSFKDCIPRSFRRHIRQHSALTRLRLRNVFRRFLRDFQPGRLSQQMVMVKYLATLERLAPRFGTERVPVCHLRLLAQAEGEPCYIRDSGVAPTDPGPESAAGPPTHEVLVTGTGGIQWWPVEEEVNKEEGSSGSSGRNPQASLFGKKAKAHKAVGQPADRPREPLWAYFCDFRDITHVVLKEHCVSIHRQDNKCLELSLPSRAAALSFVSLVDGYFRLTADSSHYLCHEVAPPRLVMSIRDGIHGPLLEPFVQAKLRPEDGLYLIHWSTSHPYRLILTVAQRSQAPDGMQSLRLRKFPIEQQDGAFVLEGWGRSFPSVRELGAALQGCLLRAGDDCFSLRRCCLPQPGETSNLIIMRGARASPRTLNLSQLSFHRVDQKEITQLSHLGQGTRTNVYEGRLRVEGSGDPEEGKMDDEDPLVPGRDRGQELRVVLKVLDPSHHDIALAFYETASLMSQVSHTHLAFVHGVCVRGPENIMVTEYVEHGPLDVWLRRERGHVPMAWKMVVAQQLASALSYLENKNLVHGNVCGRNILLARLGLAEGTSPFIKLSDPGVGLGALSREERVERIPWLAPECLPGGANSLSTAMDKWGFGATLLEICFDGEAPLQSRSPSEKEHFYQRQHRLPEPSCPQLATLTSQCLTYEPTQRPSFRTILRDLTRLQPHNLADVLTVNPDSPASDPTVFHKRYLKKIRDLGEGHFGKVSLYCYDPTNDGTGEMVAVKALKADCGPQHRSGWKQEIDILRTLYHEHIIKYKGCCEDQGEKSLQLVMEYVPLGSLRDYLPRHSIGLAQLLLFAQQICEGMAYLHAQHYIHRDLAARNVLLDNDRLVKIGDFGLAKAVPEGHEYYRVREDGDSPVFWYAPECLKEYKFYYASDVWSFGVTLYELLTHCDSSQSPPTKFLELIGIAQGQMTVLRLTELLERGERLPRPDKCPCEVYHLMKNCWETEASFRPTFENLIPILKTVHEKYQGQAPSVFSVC
Chain of RSK3 (Q15349 whole entry): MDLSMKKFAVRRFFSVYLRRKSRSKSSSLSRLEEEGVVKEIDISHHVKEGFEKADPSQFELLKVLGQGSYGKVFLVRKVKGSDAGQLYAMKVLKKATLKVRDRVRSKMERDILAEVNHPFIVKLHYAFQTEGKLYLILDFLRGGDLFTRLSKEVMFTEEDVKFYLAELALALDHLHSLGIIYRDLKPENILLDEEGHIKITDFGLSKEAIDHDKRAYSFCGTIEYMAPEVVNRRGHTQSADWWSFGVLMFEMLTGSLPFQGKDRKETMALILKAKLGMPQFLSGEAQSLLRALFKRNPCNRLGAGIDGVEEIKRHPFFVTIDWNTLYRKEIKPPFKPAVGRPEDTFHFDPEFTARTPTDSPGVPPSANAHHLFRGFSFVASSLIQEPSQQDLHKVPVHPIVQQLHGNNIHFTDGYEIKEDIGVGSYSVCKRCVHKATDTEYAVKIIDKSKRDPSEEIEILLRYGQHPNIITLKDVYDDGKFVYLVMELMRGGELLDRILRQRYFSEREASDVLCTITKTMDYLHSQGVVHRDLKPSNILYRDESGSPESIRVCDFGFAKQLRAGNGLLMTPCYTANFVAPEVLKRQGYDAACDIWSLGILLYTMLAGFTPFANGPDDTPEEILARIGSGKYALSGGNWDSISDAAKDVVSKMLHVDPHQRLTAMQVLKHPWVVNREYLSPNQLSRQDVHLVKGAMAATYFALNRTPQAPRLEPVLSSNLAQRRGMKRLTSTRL
Chain of Erk1 (P27361 whole entry): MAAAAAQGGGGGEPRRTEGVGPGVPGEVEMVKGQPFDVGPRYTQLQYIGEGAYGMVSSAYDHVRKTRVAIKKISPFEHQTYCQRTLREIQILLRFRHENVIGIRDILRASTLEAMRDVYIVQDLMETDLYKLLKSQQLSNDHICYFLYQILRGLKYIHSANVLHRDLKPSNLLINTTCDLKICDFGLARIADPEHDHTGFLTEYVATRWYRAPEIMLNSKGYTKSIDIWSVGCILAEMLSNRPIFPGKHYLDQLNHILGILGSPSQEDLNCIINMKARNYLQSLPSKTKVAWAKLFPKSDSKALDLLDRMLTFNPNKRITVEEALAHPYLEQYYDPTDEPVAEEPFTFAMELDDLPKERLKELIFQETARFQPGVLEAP
Chain of IRE1 (O75460 19-977): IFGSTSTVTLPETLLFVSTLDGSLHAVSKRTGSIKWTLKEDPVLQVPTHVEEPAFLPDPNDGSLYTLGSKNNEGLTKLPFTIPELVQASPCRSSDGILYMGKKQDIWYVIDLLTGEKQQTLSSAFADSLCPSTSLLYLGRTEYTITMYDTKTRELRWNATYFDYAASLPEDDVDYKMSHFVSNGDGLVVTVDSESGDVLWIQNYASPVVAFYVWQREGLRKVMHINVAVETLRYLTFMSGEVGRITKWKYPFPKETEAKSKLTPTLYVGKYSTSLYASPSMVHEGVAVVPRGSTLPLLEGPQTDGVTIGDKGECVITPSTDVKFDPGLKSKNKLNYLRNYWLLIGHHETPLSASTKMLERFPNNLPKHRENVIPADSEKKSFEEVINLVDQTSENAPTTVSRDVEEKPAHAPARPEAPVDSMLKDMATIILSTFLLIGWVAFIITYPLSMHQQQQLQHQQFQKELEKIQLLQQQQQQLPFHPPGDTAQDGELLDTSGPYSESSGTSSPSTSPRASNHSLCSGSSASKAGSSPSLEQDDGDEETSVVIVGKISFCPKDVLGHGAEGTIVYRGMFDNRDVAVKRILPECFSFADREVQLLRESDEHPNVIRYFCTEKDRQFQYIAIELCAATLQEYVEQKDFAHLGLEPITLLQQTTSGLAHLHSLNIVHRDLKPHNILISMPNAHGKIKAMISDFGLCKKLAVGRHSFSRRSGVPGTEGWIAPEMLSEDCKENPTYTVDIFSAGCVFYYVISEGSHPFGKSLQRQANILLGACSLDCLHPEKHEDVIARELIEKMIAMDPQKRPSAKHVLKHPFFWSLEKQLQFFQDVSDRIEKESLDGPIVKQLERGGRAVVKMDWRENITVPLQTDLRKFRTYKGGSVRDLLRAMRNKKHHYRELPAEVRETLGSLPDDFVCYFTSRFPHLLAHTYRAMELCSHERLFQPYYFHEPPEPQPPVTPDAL
Chain of JNK2 (P45984 whole entry): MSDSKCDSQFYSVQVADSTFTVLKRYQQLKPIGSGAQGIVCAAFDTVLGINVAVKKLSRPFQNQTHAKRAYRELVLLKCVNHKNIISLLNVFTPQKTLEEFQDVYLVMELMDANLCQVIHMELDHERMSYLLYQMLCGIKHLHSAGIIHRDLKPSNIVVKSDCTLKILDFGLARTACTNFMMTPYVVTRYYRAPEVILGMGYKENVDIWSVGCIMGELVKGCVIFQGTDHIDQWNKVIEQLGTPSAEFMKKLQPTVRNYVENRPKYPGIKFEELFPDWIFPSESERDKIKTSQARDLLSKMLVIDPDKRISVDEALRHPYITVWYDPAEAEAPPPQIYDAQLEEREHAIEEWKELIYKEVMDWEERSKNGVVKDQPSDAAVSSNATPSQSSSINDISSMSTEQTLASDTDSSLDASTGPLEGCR

- inhibition at 10 µM [1]: 91.8%
- inhibition at 10 µM [2]: 76.1%
- Competition % [3]: 95%
- Competition % [4]: 93.8%
- inhibition at 10 µM [5]: 89.7%
- inhibition at 10 µM [6]: 77.8%
- inhibition at 10 µM [7]: 93.4%
- inhibition at 10 µM [8]: 92.6%
- Competition % [9]: 83.1%
- inhibition at 10 µM [10]: 95.4%
- inhibition at 10 µM [11]: 94.8%
- inhibition at 10 µM [12]: 93.8%
SMILES: CS(=O)(=O)Nc1ccccc1Nc1nc(Nc2cccc(OCCN)c2)ncc1Cl [CZC31326, N-(2-(2-(3-(2-aminoethoxy)phenylamino)-5-chloropyrimidin-4-ylamino)phenyl)methanesulfonamide]
